Results: US7605265B2, “Heterodimers and methods of using them” (priority 2007, dated 2009)

Columns and labels:
[1] = system: scopolamine-induced memory impaired rats; assay: Morris water maze, scopolamine-induced memory impairment; type: in vivo, rat; details: for spatial bias: scopolamine 0.1 mg/kg; for spatial bias (% of total distance swum in the training quadrant during spatial probe trial): memory-impaired rats, FIG. 4d-4f; for escape latency: 4 days
Experimental: The Morris water maze consists of a water pool with a hidden, submerged escape platform. The rats must learn, over a period of consecutive days, the location of the platform using either contextual or local cues. The time taken to locate the hidden platform (escape latency) is a measure of the animal's cognitive abilities.
(§1) Scopolamine (0.1 mg/kg) was first i.p. administered to young adult rats to impair their memories. Scopolamine-induced memory impaired rats were then orally administered one of three different doses of compound B (0.025, 0.050, or 0.100 mg/kg) and subjected to the Morris water maze over a period of 4 days. On each day, the time taken for the rats to detect the hidden platform in the water maze was measured, in seconds.
as §1, with “C (0.1, 0.2,” for “B (0.025, 0.050,”, “0.4” for “0.100”
as §1, with “A (0.1, 0.2,” for “B (0.025, 0.050,”, “0.4” for “0.100”
A spatial bias (% of total distance swum in the training quadrant during spatial probe trial) for the region of the apparatus where the platform was positioned during training was also measured for compounds B and C.
The spatial bias for the region of the testing apparatus where the hidden platform was positioned during training was measured. […] Tacrine (THA) was included for comparison purposes.

[2] = biological target: T1, NMDA receptor (Rattus norvegicus, UniProt P35439); assay: Whole cell patch clamp, NMDA-induced current in hippocampal neurons; type: cell-based; details: DIV10-14 rat hippocampal neurons, NMDA 50 μM, compound 10 μg/mL; FIG. 1
T1 construct: Hippocampal neurons from embryonic day 18 rats were isolated, trypsinized, plated onto 35-mm plates; endogenous in cells; host or cells: primary hippocampal neurons from embryonic day 18 rats, DIV10-14
Experimental: The NMDA receptor is a gated ion channel, which allows inflow of current during a nerve impulse. Antagonists to the receptor would prevent the inflow of current. Memantine, a known NMDA antagonist was used as the positive control.
Hippocampal neurons from embryonic day 18 rats were isolated, trypsinized, plated onto 35-mm plates at a density of 3×10^4 cells/plate and cultured in Neurobasal medium (NB) supplemented with B27 nutrient. DIV10-14 rat hippocampal neurons were treated with NMDA (50 μM) in the absence or presence of the novel compounds (Cpd A, B and C) (10 μg/mL). Data is presented as % of NMDA-induced current. DMSO is the solvent control.

[3] = system: rat cortical neurons; assay: NMDA survival assay (LDH release) in cortical neurons; type: cell-based; details: DIV11 rat cortical neurons, NMDA 20 μM, compound 0.001-10 μg/mL, LDH at 24 hr; FIG. 3
Experimental: The compounds were subjected to NMDA survival assays to investigate their ability to prevent NMDA receptor-induced excitotoxicity. The NMDA survival assay was performed to measure the degree of protection provided to cortical neuronal cells when treated with the compounds prior to an ischemic insult.
DIV10 cortical neurons were treated with NMDA (20 μM) in the presence of compound (cpd) B or C (μg/mL). LDH release in the medium was detected at 24 hr after treatment. DMSO was used as the solvent control, while MK-801 (10 μM) is a known NMDA antagonist.
DIV11 rat cortical neurons were treated with NMDA (20 μM) in the absence or presence of compounds (MK-801, 10 μM; compound A, 0.001-10 μg/mL). LDH release in the medium was detected at 24 hr after treatment. DMSO was used as the solvent control.

Compound	scopolamine-induced performance deficits (escape latency) ([1]; 0.2 and 0.4 mg/kg orally, scopolamine 0.1 mg/kg i.p., FIG. 4c)	spatial bias ([1]; 0.2 and 0.4 mg/kg, FIG. 4e, 4f)	spatial bias (% of total distance swum in the training quadrant during spatial probe trial) [1]	NMDA-induced current [2]	protection against NMDA insults (LDH release) [3]	escape latency ([1]; 0.1 mg/kg orally, scopolamine 0.1 mg/kg i.p., FIG. 4a)	spatial bias ([1]; 0.05 and 0.1 mg/kg p.o., FIG. 4d)	escape latency, compared with tacrine ([1]; 0.2 mg/kg and 0.4 mg/kg vs 1.5 mg/kg tacrine (THA))	escape latency ([1]; 0.4 mg/kg orally, scopolamine 0.1 mg/kg i.p., FIG. 4b)
O=c1ccc2c([nH]1)CCC(NCCCNc1c3c(nc4cc(Cl)ccc14)CCCC3)C2 (centres unmarked) [Compound A]	significantly reversed scopolamine-induced performance deficits	spatial bias close to control levels	significantly increased spatial bias	decreased NMDA-induced current in hippocampal neurons	capable of protecting cortical neurons against NMDA insults	–	–	–	–
O=c1ccc2c([nH]1)CCCC2NCCCCCCCNc1c2c(nc3cc(Cl)ccc13)CCCC2 (centres unmarked) [Compound B]	–	–	significantly increased spatial bias	decreased NMDA-induced current in hippocampal neurons	–	reversed the increased escape latency induced by scopolamine	spatial bias close to control levels	–	–
O=c1ccc2c([nH]1)CCCC2NCCCCCCCCNc1c2c(nc3cc(Cl)ccc13)CCCC2 (centres unmarked) [Compound C]	–	spatial bias close to control levels	significantly increased spatial bias	decreased NMDA-induced current in hippocampal neurons	–	–	–	more effective that 1.5 mg/kg tacrine	significantly reversed the increased escape latency induced by scopolamine
